pIC50: −log10 of the molar value. Like-named read-outs stand apart in the source and are kept apart here.

Assay [1] has as its system acute myelogenous leukemia cells (MV-4-11 cells). As to the kind of experiment: Cytotoxicity to acute myelogenous leukemia cells (MV-4-11 cells), CCK-8. The conditions noted are these: Homo sapiens, MV4-11, 72 h.
The target in assay [2] is BRD4 (BD1+BD2) bromodomain (Homo sapiens (Human), UniProt O60885). Briefly: BRD4 binding inhibition (AlphaScreen, GST-BRD4 vs tetraacetylated histone H4 peptide). In a few lines:
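AlphaScreen read after 30 min dark incubation at room temperature with glutathione acceptor/streptavidin donor beads (10 μg/ml each). The beads were added to compound plus 100 nM biotin-H4 (K5,8,12,16-acetyl) peptide and 100 nM GST-BRD4 BD1+BD2 in pH 7.4 HEPES/Tween/BSA/DTT buffer.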
For orientation: Alpha assays give light when donor and acceptor beads are brought close together.

Setting [3] is: read-out: IC50, cytotoxicity against acute myelogenous leukemia cells.
Where [4] appears, read: read-out: MV-4-11 Cytotoxicity IC50.
[5] abbreviates: GST-BRD4 (BD1+BD2) / biotinylated acetyl-histone H4 (Lys5,8,12,16) peptide, read-out: IC50, BRD4 binding inhibition.
Where [6] appears, read: GST-BRD4 (BD1+BD2) vs biotinylated acetyl-histone H4 peptide, AlphaScreen, read-out: BRD4 IC50.

For the compound `COc1cc2nc(NCCCCNC(=O)C=C(C)C)c3nnc(C)n3c2cc1OC` [Example 71, 3-methyl-butene-2-oic acid-[4-(7,8-dimethoxy-1-methyl-[1,2,4]triazolo[4,3-a]quinoxaline-4-ylamino)-butyl]-amide], the pIC50 (in general, the IC50 on a negative log10 scale, so that one unit is a factor of ten) was at least 6.70 in assay [1] (setting [3]), 6.96 in assay [1] (setting [4]), at least 7.30 in assay [2] (setting [5]) and 7.74 in assay [2] (setting [6]).
With `C/C=C/C(=O)NCCCCNc1nc2cc(OC)c(OC)cc2n2c(C)nnc12` [Example 72, butene-2-oic acid-[4-(7,8-dimethoxy-1-methyl-[1,2,4]triazolo[4,3-a]quinoxaline-4-ylamino)-butyl]-amide], the pIC50 in assay [1] (setting [4]) is 6.33; in assay [2] (setting [5]), at least 7.30; in assay [2] (setting [6]), 7.68.
In the case of `CCC(C)CC(=O)NCCCCNc1nc2cc(OC)c(OC)cc2n2c(C)nnc12` (stereo not shown) [Example 73, 3-methyl-pentanoic acid-[4-(7,8-dimethoxy-1-methyl-[1,2,4]triazolo[4,3-a]quinoxaline-4-ylamino)-butyl]-amide], the pIC50 in assay [1] (setting [3]) was at least 6.70; in assay [1] (setting [4]), 8.00; in assay [2] (setting [5]), at least 7.30; in assay [2] (setting [6]) it was 7.82.
With `COc1cc2nc(NCCCCNC(=O)C3CC3)c3nnc(C)n3c2cc1OC` [Example 76, cyclopropane-carboxylic acid-[4-(7,8-dimethoxy-1-methyl-[1,2,4]triazolo[4,3-a]quinoxaline-4-ylamino)-butyl]-amide], the pIC50 is 6.06 in assay [1] (setting [4]), at least 7.30 in assay [2] (setting [5]) and 7.42 in assay [2] (setting [6]).
With `CCC(CC)C(=O)NCCCCNc1nc2cc(OC)c(OC)cc2n2c(C)nnc12` [Example 78, N-[4-(7,8-dimethoxy-1-methyl-[1,2,4]triazolo[4,3-a]quinoxaline-4-ylamino)-butyl]-2-ethyl-butyramide], the pIC50 was at least 6.70 in assay [1] (setting [3]), 6.85 in assay [1] (setting [4]), at least 7.30 in assay [2] (setting [5]) and 7.70 in assay [2] (setting [6]).
Taken in the same sequence, the figures for `COc1cc2nc(NCCCCNC(=O)CCC(C)C)c3nnc(C)n3c2cc1OC` [Example 79, 4-methyl-pentanoic acid [4-(7,8-dimethoxy-1-methyl-[1,2,4]triazolo[4,3-a]quinoxaline-4-ylamino)-butyl]-amide] were at least 6.70, 7.15, at least 8.00 and 8.30.
The like results for `COc1cc2nc(NCCCCNC(=O)CCC3CCCC3)c3nnc(C)n3c2cc1OC` [Example 81, 3-cyclopentyl-N-[4-(7,8-dimethoxy-1-methyl-[1,2,4]triazolo[4,3-a]quinoxaline-4-ylamino)-butyl]-propionamide] were, in that order, at least 6.70, 7.00, at least 8.00 and 8.00.
Take `COc1cc2nc(NCCCCNC(=O)[C@@H](O)C(C)C)c3nnc(C)n3c2cc1OC` [Example 83, N-[4-(7,8-dimethoxy-1-methyl-[1,2,4]triazolo[4,3-a]quinoxaline-4-ylamino)-butyl]-2-(S)-hydroxy-3-methyl-butyramide]: the pIC50 in assay [1] (setting [4]) is 6.68; in assay [2] (setting [5]), at least 8.00; in assay [2] (setting [6]), 8.70.
On to `COc1cc2nc(NCCCCNC(=O)Cc3ccco3)c3nnc(C)n3c2cc1OC` [Example 85, N-[4-(7,8-dimethoxy-1-methyl-[1,2,4]triazolo[4,3-a]quinoxaline-4-ylamino)-butyl]-2-furan-2-yl-acetamide], for which the pIC50 is at least 6.70 in assay [1] (setting [3]), 7.30 in assay [1] (setting [4]), at least 7.30 in assay [2] (setting [5]) and 7.57 in assay [2] (setting [6]).
Taken in the same sequence, the figures for `COc1cc2nc(NCCCCNC(=O)Cc3ccccc3)c3nnc(C)n3c2cc1OC` [Example 86, N-[4-(7,8-dimethoxy-1-methyl-[1,2,4]triazolo[4,3-a]quinoxaline-4-ylamino)-butyl]-2-phenyl-acetamide] were at least 6.70, 7.22, at least 7.30 and 7.77.
Turning to `COc1cc2nc(NCCCCNC(=O)c3ccccc3)c3nnc(C)n3c2cc1OC` [Example 95, N-[4-(7,8-dimethoxy-1-methyl-[1,2,4]triazolo[4,3-a]quinoxaline-4-ylamino)-butyl]-benzamide], the values for the pIC50 in assay [1] (setting [4]), in assay [2] (setting [5]) and in assay [2] (setting [6]) were 6.23, at least 7.30 and 7.44, respectively.
`COc1cc2nc(NCCCCNC(=O)c3ccc(C(C)(C)C)cc3)c3nnc(C)n3c2cc1OC` [Example 96, 4-tert-butyl-N-[4-(7,8-dimethoxy-1-methyl-[1,2,4]triazolo[4,3-a]quinoxaline-4-ylamino)-butyl]-benzamide]: the pIC50 was 6.20 in assay [1] (setting [4]) and at least 7.30 in assay [2] (setting [5]).
The like results for `COc1cc2nc(NCCCCNC(=O)c3ccccc3OC)c3nnc(C)n3c2cc1OC` [Example 97, N-[4-(7,8-dimethoxy-1-methyl-[1,2,4]triazolo[4,3-a]quinoxaline-4-ylamino)-butyl]-2-methoxy-benzamide] were, in that order, 6.29 and at least 7.30.
Regarding `COc1cc2nc(NCCCCNC(=O)c3ccc(F)cc3)c3nnc(C)n3c2cc1OC` [Example 98, N-[4-(7,8-dimethoxy-1-methyl-[1,2,4]triazolo[4,3-a]quinoxaline-4-ylamino)-butyl]-4-fluoro-benzamide], the results for the pIC50 in assay [1] (setting [4]), in assay [2] (setting [5]) and in assay [2] (setting [6]) were 6.08, at least 7.30 and 7.33, respectively.
`COc1cc2nc(NCCCCNC(=O)c3ccccn3)c3nnc(C)n3c2cc1OC` [Example 105, pyridine-2-carboxylic acid-[4-(7,8-dimethoxy-1-methyl-[1,2,4]triazolo[4,3-a]quinoxaline-4-ylamino)-butyl]-amide]: the pIC50 is 6.19 in assay [1] (setting [4]) and 7.22 in assay [2] (setting [6]).
Turning to `COc1cc2nc(NCCCCNC(=O)c3ccccc3F)c3nnc(C)n3c2cc1OC` [Example 106, N-[4-(7,8-dimethoxy-1-methyl-[1,2,4]triazolo[4,3-a]quinoxaline-4-ylamino)-butyl]-2-fluoro-benzamide], the pIC50 in assay [1] (setting [4]) was 6.51; in assay [2] (setting [5]) it was at least 7.30; in assay [2] (setting [6]) it was 7.55.
With `COc1cccc2c1nc(NCCCCNC(=O)OC(C)(C)C)c1nnc(C)n12` [Example 117, [4-(6-methoxy-1-methyl-[1,2,4]triazolo[4,3-a]quinoxaline-4-ylamino)-butyl]-carbamic acid-tert-butylester], the pIC50 in assay [1] (setting [4]) was 6.43; in assay [2] (setting [6]), 7.19.
Consider `COc1ccc2nc(NCCCCNC(=O)c3ccccc3Cl)c3nnc(C)n3c2c1` [Example 128, 2-chloro-N-[4-(8-methoxy-1-methyl-[1,2,4]triazolo[4,3-a]quinoxaline-4-ylamino)-butyl]-benzamide], for which the pIC50 in assay [1] (setting [3]) is at least 6.70; in assay [1] (setting [4]) it was 6.77; in assay [2] (setting [5]) it was at least 7.30; in assay [2] (setting [6]) it was 7.48.
In the case of `COc1c(C)ccc2c1nc(NCCCCNC(=O)[C@@H](O)C(C)C)c1nnc(C)n12` [Example 137, 2-(S)-hydroxy-N-[4-(6-methoxy-1,7-dimethyl-[1,2,4]triazolo[4,3-a]quinoxaline-4-ylamino)-butyl]-3-methyl-butyramide], the values for the pIC50 in assay [1] (setting [4]), in assay [2] (setting [5]) and in assay [2] (setting [6]) were 6.43, at least 8.00 and 8.22, respectively.
`COc1c(C)ccc2c1nc(NCCCCNC(=O)c1ccccc1)c1nnc(C)n12` [Example 138, N-[4-(6-methoxy-1,7-dimethyl-[1,2,4]triazolo[4,3-a]quinoxaline-4-ylamino)-butyl]-benzamide]: the pIC50 is 6.07 in assay [1] (setting [4]) and 7.29 in assay [2] (setting [6]).
Taken in the same sequence, the figures for `COc1c(C)ccc2c1nc(NCCCCNC(=O)c1ccccc1Cl)c1nnc(C)n12` [Example 140, 2-chloro-N-[4-(6-methoxy-1,7-dimethyl-[1,2,4]triazolo[4,3-a]quinoxaline-4-ylamino)-butyl]-benzamide] were 6.17 and 7.28.
With `COc1cc2c(cc1C)nc(NCCCCNC(=O)OCC(C)C)c1nnc(C)n12` [Example 150, [4-(8-methoxy-1,7-dimethyl-[1,2,4]triazolo[4,3-a]quinoxaline-4-ylamino)-butyl]-carbamic acid isobutylester], the pIC50 in assay [1] (setting [4]) is 6.34; in assay [2] (setting [5]), at least 7.30; in assay [2] (setting [6]), 7.32.
For `COc1cc2c(cc1C)nc(NCCCCNC(=O)CC(C)C)c1nnc(C)n12` [Example 151, N-[4-(8-methoxy-1,7-dimethyl-[1,2,4]triazolo[4,3-a]quinoxaline-4-ylamino)-butyl]-3-methyl-butyramide], the figures for the pIC50 in assay [1] (setting [4]) and in assay [2] (setting [6]) were 6.42 and 7.28, respectively.
Regarding `COc1cc2c(cc1C)nc(NCCCCNC(=O)[C@@H](O)C(C)C)c1nnc(C)n12` [Example 153, 2-(S)-hydroxy-N-[4-(8-methoxy-1,7-dimethyl-[1,2,4]triazolo[4,3-a]quinoxaline-4-ylamino)-butyl]-3-methyl-butyramide], the pIC50 was 6.34 in assay [1] (setting [4]), at least 7.30 in assay [2] (setting [5]) and 7.80 in assay [2] (setting [6]).
Taken in the same sequence, the figures for `COc1cc(C)c2nc(NCCCCNC(=O)OC(C)(C)C)c3nnc(C)n3c2c1` [Example 158, [4-(8-methoxy-1,6-dimethyl-[1,2,4]triazolo[4,3-a]quinoxaline-4-ylamino)-butyl]-carbamic acid-tert-butylester] were 6.21, at least 7.30 and 7.74.
Taken in the same sequence, the figures for `COc1cc(C)c2nc(NCCCCN)c3nnc(C)n3c2c1` [Example 159, N^1-(8-methoxy-1,6-dimethyl-[1,2,4]triazolo[4,3-a]quinoxaline-4-yl)-butane-1,4-diamine ditrifluoroacetic acid] were 6.28, at least 7.30 and 7.62.

The record behind these values is patent US11028090B2 (Dong Wha Pharm. Co., Ltd., priority 2017, dated 2021).
